{"source": "patent US10344060B2", "about": "(priority 2013, dated 2019)", "key": {"hNav1.7 [1]": {"biological_target": "T1, hNav1.7 (Homo sapiens, UniProt Q15858)", "T1 sequence (Q15858 whole entry)": "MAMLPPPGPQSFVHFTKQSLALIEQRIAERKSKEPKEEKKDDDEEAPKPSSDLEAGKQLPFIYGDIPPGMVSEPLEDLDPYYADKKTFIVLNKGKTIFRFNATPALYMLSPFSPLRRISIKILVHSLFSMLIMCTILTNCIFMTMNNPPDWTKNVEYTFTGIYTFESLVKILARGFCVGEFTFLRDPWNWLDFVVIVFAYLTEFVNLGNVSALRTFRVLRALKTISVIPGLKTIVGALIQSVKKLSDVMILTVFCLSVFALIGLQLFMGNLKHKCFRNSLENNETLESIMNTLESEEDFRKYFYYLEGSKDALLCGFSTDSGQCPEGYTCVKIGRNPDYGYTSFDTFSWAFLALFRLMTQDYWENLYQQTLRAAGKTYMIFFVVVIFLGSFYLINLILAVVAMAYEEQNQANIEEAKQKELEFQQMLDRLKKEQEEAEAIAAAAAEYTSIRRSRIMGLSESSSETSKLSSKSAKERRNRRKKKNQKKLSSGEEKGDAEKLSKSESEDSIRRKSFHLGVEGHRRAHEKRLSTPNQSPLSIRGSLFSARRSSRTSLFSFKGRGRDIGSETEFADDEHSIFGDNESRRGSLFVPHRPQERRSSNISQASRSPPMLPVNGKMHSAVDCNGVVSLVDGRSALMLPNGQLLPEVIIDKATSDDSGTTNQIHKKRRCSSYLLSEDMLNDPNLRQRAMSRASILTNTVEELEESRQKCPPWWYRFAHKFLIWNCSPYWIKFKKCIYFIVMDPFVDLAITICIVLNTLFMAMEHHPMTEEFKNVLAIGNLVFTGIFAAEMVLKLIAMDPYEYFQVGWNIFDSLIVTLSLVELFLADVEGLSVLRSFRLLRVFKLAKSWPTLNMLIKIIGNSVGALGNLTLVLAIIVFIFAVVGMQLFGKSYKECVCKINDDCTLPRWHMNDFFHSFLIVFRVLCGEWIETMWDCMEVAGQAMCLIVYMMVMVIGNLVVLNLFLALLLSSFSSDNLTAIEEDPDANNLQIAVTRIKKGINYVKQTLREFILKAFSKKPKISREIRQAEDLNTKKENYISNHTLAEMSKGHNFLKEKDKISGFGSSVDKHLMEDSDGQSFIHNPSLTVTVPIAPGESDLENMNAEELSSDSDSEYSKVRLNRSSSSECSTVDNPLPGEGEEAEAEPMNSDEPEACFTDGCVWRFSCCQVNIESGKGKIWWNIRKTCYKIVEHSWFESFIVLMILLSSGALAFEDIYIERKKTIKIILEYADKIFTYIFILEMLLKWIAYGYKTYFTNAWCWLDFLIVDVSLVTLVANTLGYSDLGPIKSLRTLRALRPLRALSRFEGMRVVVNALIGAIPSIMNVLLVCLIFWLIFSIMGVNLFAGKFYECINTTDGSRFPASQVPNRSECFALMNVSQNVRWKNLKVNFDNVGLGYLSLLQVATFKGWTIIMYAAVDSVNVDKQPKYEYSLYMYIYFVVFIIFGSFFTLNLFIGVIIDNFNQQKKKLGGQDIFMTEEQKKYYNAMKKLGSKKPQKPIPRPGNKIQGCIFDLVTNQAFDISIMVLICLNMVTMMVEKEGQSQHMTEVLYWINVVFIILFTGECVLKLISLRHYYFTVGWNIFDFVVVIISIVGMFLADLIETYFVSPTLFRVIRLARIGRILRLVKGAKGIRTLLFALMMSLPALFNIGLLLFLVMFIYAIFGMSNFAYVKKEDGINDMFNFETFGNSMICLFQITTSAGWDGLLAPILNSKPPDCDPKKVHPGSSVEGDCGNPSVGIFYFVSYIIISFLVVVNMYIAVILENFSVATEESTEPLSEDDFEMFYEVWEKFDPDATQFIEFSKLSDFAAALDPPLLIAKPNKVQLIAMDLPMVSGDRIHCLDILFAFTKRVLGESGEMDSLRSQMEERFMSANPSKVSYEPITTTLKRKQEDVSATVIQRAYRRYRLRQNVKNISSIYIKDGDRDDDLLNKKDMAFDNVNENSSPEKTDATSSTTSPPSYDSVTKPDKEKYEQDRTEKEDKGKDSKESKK", "assay": "cell-based", "type": "cell-based"}, "hNav1.4": {"biological_target": "hNav1.4 (Homo sapiens, UniProt P35499)", "assay": "cell-based", "type": "cell-based", "conditions": "100 nM; held at −83 mV"}, "hNav1.3": {"biological_target": "hNav1.3 (Homo sapiens, UniProt Q9NY46)", "assay": "cell-based", "type": "cell-based", "conditions": "300 nM; held at −80 mV"}, "hNav1.5 [2]": {"biological_target": "T2, hNav1.5 (Homo sapiens, UniProt Q14524)", "T2 sequence (Q14524 whole entry)": "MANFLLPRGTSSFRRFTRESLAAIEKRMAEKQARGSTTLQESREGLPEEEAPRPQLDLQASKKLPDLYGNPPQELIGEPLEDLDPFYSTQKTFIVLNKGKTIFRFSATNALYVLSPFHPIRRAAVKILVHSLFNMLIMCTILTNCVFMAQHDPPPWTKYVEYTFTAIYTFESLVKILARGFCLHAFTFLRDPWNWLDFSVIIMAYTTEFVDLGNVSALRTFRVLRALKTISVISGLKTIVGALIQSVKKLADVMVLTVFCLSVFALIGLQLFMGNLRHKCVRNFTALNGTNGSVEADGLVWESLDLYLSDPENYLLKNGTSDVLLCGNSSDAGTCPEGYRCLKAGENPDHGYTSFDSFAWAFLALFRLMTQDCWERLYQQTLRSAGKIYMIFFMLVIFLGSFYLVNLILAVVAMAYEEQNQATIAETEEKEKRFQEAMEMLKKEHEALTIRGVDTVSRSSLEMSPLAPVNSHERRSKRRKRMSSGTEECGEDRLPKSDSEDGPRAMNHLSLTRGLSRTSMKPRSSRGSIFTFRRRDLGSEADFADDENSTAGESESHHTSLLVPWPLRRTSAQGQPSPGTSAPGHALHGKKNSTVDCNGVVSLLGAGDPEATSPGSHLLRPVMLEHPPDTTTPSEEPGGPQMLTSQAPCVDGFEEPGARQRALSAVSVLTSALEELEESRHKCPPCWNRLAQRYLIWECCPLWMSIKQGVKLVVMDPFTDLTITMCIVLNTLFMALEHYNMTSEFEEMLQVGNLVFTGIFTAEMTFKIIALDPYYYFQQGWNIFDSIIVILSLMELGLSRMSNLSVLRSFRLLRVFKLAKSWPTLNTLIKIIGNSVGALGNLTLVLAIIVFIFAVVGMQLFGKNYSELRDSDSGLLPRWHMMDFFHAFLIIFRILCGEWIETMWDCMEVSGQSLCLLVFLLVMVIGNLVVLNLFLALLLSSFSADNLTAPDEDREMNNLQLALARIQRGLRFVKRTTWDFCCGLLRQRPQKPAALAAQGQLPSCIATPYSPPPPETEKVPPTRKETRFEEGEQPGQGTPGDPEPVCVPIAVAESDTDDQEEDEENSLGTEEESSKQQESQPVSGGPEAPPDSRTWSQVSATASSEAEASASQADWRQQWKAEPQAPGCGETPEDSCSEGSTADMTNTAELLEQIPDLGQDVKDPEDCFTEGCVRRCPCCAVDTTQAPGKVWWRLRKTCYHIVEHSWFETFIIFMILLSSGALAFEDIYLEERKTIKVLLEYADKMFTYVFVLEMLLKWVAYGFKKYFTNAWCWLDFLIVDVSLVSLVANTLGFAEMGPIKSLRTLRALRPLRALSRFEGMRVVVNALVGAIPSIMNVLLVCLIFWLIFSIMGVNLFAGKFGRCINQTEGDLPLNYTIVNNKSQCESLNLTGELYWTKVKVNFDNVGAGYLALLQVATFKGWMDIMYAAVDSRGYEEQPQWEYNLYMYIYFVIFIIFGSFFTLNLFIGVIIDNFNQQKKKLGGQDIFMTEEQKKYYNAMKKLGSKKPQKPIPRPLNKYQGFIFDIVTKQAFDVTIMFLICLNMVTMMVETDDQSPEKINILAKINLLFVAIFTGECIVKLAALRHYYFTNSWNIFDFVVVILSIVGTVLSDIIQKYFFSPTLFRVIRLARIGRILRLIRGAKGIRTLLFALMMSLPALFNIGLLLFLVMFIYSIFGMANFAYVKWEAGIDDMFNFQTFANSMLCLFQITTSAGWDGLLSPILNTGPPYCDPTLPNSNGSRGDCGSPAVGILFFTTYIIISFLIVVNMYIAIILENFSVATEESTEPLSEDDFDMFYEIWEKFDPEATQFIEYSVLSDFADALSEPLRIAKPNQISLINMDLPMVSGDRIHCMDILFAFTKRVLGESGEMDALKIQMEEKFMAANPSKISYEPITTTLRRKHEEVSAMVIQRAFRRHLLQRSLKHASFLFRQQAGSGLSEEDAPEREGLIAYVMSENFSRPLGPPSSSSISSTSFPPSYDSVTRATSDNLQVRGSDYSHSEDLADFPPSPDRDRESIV", "assay": "cell-based", "type": "cell-based"}, "hNav1.8 [3]": {"biological_target": "hNav1.8 (Homo sapiens, UniProt Q9Y5Y9)", "assay": "cell-based", "type": "cell-based"}, "hNav1.8 [4]": {"test_system": "hNav1.8", "assay": "cell-based", "type": "cell-based, human", "conditions": "hNav1.8 / hNav1.7"}, "[5]": {"test_system": "TTX-resistant Nav channels in mouse DRG neuron"}, "hNav1.5 [6]": {"biological_target": "T2, hNav1.5", "assay": "cell-based", "conditions": "IonWorks Quattro; Table 6; read-out: IC50 (μM) Nav1.5"}, "[7]": {"test_system": "TTX-sensitive Nav channels in mouse DRG neuron", "conditions": "for 1.x/1.7: mTTX-S / hNav1.7"}, "NaV1.7": {"biological_target": "NaV1.7 (Homo sapiens, UniProt Q15858)", "sequence (Q15858 whole entry)": "as the sequence (Q15858 whole entry) above", "conditions": "read-out: EC50, impairs fast inactivation; cited from earlier work"}, "TTX-resistant VGSCs": {"test_system": "TTX-resistant VGSCs", "conditions": "cited from earlier work"}, "[8]": {"test_system": "TTX-sensitive sodium currents in adult rat DRG neurons", "conditions": "cited from earlier work"}, "[9]": {"conditions": "rat plasma, 37° C., incubation time 0 hr (normalization point)"}, "[10]": {"conditions": "cyno plasma, 37° C., incubation 0 hr (normalisation point)"}, "[11]": {"conditions": "mouse plasma, 37° C., incubation 0 hr (normalisation point)"}, "hNav1.7 [12]": {"biological_target": "T1, hNav1.7", "assay": "cell-based", "conditions": "ratio of IonWorks Quattro IC50 values, Nav1.4 over Nav1.7"}, "[13]": {"conditions": "human plasma, 37° C., incubation 0 hr (normalisation point)"}, "rats [14]": {"test_system": "rats", "conditions": "rat, in vivo, 0.1 mg/kg; cited from earlier work"}, "rats [15]": {"test_system": "rats", "conditions": "rat, in vivo; cited from earlier work"}}, "note": "Several values for one entry are separate records, joined by “and”; a condition that tells them apart may be missing. Equal values may be shown once. Entries after “also recorded” stand apart in the source; their conditions may differ. Read-outs that look alike come from different tables or passages of the source.", "data": [{"compound": "CC[C@H](C)[C@H](NC(=O)[C@@H](NC(=O)[C@H](CCCCN)NC(=O)[C@H](CCCNC(=N)N)NC(=O)[C@@H]1CSSC[C@@H]2NC(=O)[C@H](C)NC(=O)[C@H](CCCNC(=N)N)NC(=O)[C@H](CCCCN)NC(=O)[C@H](CO)NC(=O)[C@H](CC(=O)O)NC(=O)[C@@H]3CSSC[C@H](NC(=O)[C@H](CCCNC(=N)N)NC(=O)[C@H](CC(C)C)NC(=O)CNC(=O)[C@H](CCC(=O)O)NC(=O)[C@H](CSSC[C@H](NC(=O)[C@@H](N)Cc4ccc(O)cc4)C(=O)N[C@@H](CCC(N)=O)C(=O)N[C@@H](CCCCN)C(=O)N[C@@H](Cc4c[nH]c5ccccc45)C(=O)N[C@@H](CCSC)C(=O)N[C@@H](Cc4c[nH]c5ccccc45)C(=O)N[C@@H]([C@@H](C)O)C(=O)N3)NC2=O)C(=O)N[C@@H](CCCCN)C(=O)N[C@@H](CC(C)C)C(=O)N[C@@H](Cc2c[nH]c3ccccc23)C(=O)N1)[C@@H](C)CC)C(N)=O", "note": "[compound 2]", "values": [{"measurement": "inhibition of hNav1.7 current, in words", "setting": "hNav1.7 [1]; 1 nM as printed", "result": "complete inhibition"}, {"measurement": "block of hNav1.7 current, in words", "setting": "hNav1.7 [1]; 1 μM", "result": "blocked all Nav1.7 current"}, {"measurement": "block of hNav1.4 current, in words", "setting": "hNav1.4", "result": "completely blocked Nav1.4 current; also recorded: complete inhibition"}, {"measurement": "block of hNav1.3 current, in words", "setting": "hNav1.3", "result": "completely blocked Nav1.3 current; also recorded: complete inhibition"}, {"measurement": "block of hNav1.5 current, in words", "setting": "hNav1.5 [2]; 3 μM, held at −85 mV", "result": "blocked most Nav1.5 current; also recorded: nearly complete inhibition"}, {"measurement": "IC50", "setting": "hNav1.5 [2]; manual WCPC, ~20% inactivation, read-out: IC50 of hNav1.5 inhibition", "result": 426, "unit": "nM"}, {"measurement": "block of TTX-resistant hNav1.8 current", "setting": "hNav1.8 [3]", "result": "approximately 50%"}, {"measurement": "inhibition of hNav1.8 current, in words", "setting": "hNav1.8 [3]", "result": "only partial inhibition"}, {"measurement": "1.x/1.7", "setting": "hNav1.8 [4]; fully non-inactivated", "result": 5724}, {"measurement": "1.x/1.7", "setting": "hNav1.8 [4]; partially inactivated", "result": 3282}, {"measurement": "IC50", "setting": "[5]", "result": "> 1000", "unit": "nM"}, {"measurement": "IC50 of TTX-resistant sodium channel current inhibition", "setting": "[5]", "result": "not measurable"}, {"measurement": "IC50", "setting": "hNav1.5 [6]", "result": "3 µM and 3.5 µM"}, {"measurement": "1.x/1.7", "setting": "[7]; fully non-inactivated", "result": 530}, {"measurement": "block of TTX-sensitive Nav current, in words", "setting": "[7]; increasing concentrations, time course", "result": "blocked nearly all TTX-sensitive Nav current"}, {"measurement": "1.x/1.7", "setting": "[7]; partially inactivated", "result": 111}]}, {"compound": "OD1 [OD 1]", "values": [{"measurement": "EC50", "setting": "NaV1.7", "result": 4.5, "unit": "nM"}]}, {"compound": "Huwentoxin-IV [HWTX-IV]", "values": [{"measurement": "effect on TTX-resistant VGSCs", "setting": "TTX-resistant VGSCs", "result": "no effect"}, {"measurement": "IC50", "setting": "[8]", "result": 30, "unit": "nM"}]}, {"compound": "CC[C@H](C)[C@H](NC(=O)[C@H](CO)NC(=O)[C@H](CCCCN)NC(=O)[C@H](CCCNC(=N)N)NC(=O)[C@@H]1CSSC[C@@H]2NC(=O)[C@H](C)NC(=O)[C@H](CCCNC(=N)N)NC(=O)[C@H](CCCCN)NC(=O)[C@H](CO)NC(=O)[C@H](CC(=O)O)NC(=O)[C@@H]3CSSC[C@H](NC(=O)[C@H](CCC(=O)O)NC(=O)[C@H](CC(C)C)NC(=O)CNC(=O)[C@H](CCC(=O)O)NC(=O)[C@H](CSSC[C@H](NC(=O)[C@@H](N)Cc4ccc(O)cc4)C(=O)N[C@@H](CCC(N)=O)C(=O)N[C@@H](CCCCN)C(=O)N[C@@H](Cc4c[nH]c5ccccc45)C(=O)N[C@@H](CCSC)C(=O)N[C@@H](Cc4c[nH]c5ccccc45)C(=O)N[C@@H]([C@@H](C)O)C(=O)N3)NC2=O)C(=O)N[C@@H](CCCCN)C(=O)N[C@@H](CC(C)C)C(=O)N[C@@H](Cc2c[nH]c3ccccc23)C(=O)N1)C(N)=O", "note": "[SEQ ID NO: 138, [Glu20,Ser28]JzTx-V(1-29)]", "values": [{"measurement": "% Peptide Remaining", "setting": "[9]", "result": 100, "unit": "%"}]}, {"compound": "CC[C@H](C)[C@H](NC(=O)[C@H](CO)NC(=O)[C@H](CCCCN)NC(=O)[C@H](CCCNC(=N)N)NC(=O)[C@@H]1CSSC[C@@H]2NC(=O)[C@H](C)NC(=O)[C@H](CCCNC(=N)N)NC(=O)[C@H](CCCCN)NC(=O)[C@H](CO)NC(=O)[C@H](CC(=O)O)NC(=O)[C@@H]3CSSC[C@H](NC(=O)[C@H](CCC(=O)O)NC(=O)[C@H](CC(C)C)NC(=O)CNC(=O)[C@H](CCC(=O)O)NC(=O)[C@H](CSSC[C@H](NC(=O)[C@@H](N)Cc4ccc(O)cc4)C(=O)N[C@@H](CCC(N)=O)C(=O)N[C@@H](CCCCN)C(=O)N[C@@H](Cc4c[nH]c5ccccc45)C(=O)N[C@@H](CCSC)C(=O)N[C@@H](Cc4c[nH]c5ccccc45)C(=O)N[C@@H]([C@@H](C)O)C(=O)N3)NC2=O)C(=O)N[C@@H](CCCCN)C(=O)N[C@@H](CC(C)C)C(=O)N[C@@H](Cc2c[nH]c3ccccc23)C(=O)N1)C(N)=O", "note": "[compound 138]", "values": [{"measurement": "% Peptide Remaining", "setting": "[10]", "result": 100, "unit": "%"}, {"measurement": "% Peptide Remaining", "setting": "[11]", "result": 100, "unit": "%"}, {"measurement": "Nav1.4/Nav1.7", "setting": "hNav1.7 [12]", "result": "62 and 34"}, {"measurement": "% Peptide Remaining", "setting": "[13]", "result": 100, "unit": "%"}]}, {"compound": "YCQKWMWTCDSERKCCEGMVCRLWCKKKLW [ProTx-II]", "values": [{"measurement": "tolerability", "setting": "rats [14]", "result": "lethal"}, {"measurement": "efficacy in mechanical hyperalgesia study", "setting": "rats [15]", "result": "not efficacious"}]}, {"compound": "CC[C@H](C)[C@H](NC(=O)[C@H](CCCCN)NC(=O)[C@H](CCCNC(=N)N)NC(=O)[C@@H]1CSSC[C@@H]2NC(=O)[C@H](C)NC(=O)[C@H](CCCNC(=N)N)NC(=O)[C@H](CCCCN)NC(=O)[C@H](CO)NC(=O)[C@H](CC(=O)O)NC(=O)[C@@H]3CSSC[C@H](NC(=O)[C@H](CCC(=O)O)NC(=O)[C@H](CC(C)C)NC(=O)CNC(=O)[C@H](CCC(=O)O)NC(=O)[C@H](CSSC[C@H](NC(=O)[C@@H](N)Cc4ccc(O)cc4)C(=O)N[C@@H](CCC(N)=O)C(=O)N[C@@H](CCCCN)C(=O)N[C@@H](Cc4c[nH]c5ccccc45)C(=O)N[C@@H](CCSC)C(=O)N[C@@H](Cc4c[nH]c5ccccc45)C(=O)N[C@@H]([C@@H](C)O)C(=O)N3)NC2=O)C(=O)N[C@@H](CCCCN)C(=O)N[C@@H](CC(C)C)C(=O)N[C@@H](Cc2c[nH]c3ccccc23)C(=O)N1)C(=O)N[C@@H](Cc1c[nH]c2ccccc12)C(N)=O", "note": "[SEQ ID NO: 112, [Glu20,Trp29]JzTx-V(1-29)]", "values": [{"measurement": "% Peptide Remaining", "setting": "[9]", "result": 100, "unit": "%"}]}]}
